The data set can be described thus: Phase 1 study: injection-site evaluation (injection-site reactions). The data set is classed as in vivo, human. Conditions: for patients who experienced ISRs / patients with injection-site pain: associated with the named injection; for Injection-site discomfort / Injection-site erythema / Injection-site induration / Injection-site pain / Injection-site swelling / Patients with at least one ISR: reactions associated with the named injection on day 1. On the procedure:
The duration of the study was approximately 6 months and consisted of screening, inpatient dosing, outpatient, and follow-up period (FIG. 1). […] A total of 160 patients were planned to be enrolled and randomized 1:1:1:1 to one of four treatment groups, as follows: 1-day initiation regimen groups (30 mg oral aripiprazole plus ALNCD, plus either AL 441 or 882 mg [on day 1] then 20 days of oral placebo), or 21-day initiation regimen groups (15 mg oral aripiprazole plus placebo IM, plus either AL 441 or 882 mg [on day 1] followed by 20 days of oral aripiprazole 15 mg/day). […] ALNCD or placebo were administered as IM injections in the gluteal muscle. For the AL doses, a single 441 mg dose was given in the deltoid muscle or a single 882 mg dose in the gluteal muscle contralateral to the ALNCD (or placebo) injection. All safety analyses were performed using observed data from the safety population, and measurements included adverse events (AEs), vital signs measurements, weight, laboratory test results, ECG findings, Columbia-Suicide Severity Rating Scale (C-SSRS) responses, movement disorder measures, CGI-S responses, and injection-site evaluation. AEs were assessed daily on days 1-15, every other day from days 17-25, on days 28 and 31, once-weekly from days 35 to 85, and on days 113 and 141. Injection-site evaluations were carried out daily on days 1-15, every other day from days 17-25, and on day 28. The injection site and surrounding area were evaluated with each injection (separately for the ALNCD or placebo injection site and AL site). Any observed injection-site reactions were followed until resolution.

As for `CCCCCCCCCCCC(=O)OCN1C(=O)CCc2ccc(OCCCCN3CCN(c4cccc(Cl)c4Cl)CC3)cc21` [AL, (7-(4-(4-(2,3-dichlorophenyl)piperazin-1-yl)butoxy)-2-oxo-3,4-dihydroquinolin-1(2H)-yl)methyl dodecanoate], the “severity of Injection-Site Reactions (ISRs)” value (all ISRs associated with the injection) was “mild-to-moderate”. Besides, where the note is “listed as AL 441 mg”, the “patients who experienced ISRs” value is 22.8%, the “patients with injection-site pain” value came to 20.3%, the Injection-site discomfort is given as 1 (1.3) n (%) and the Injection-site erythema was 1 (1.3) n (%). Further, under “listed as AL 441 mg”, the Injection-site induration is listed as 4 (5.1) n (%), the Injection-site pain was 16 (20.3) n (%), the Injection-site swelling is listed as 2 (2.5) n (%) and the “Patients with at least one ISR” value is 18 (22.8) n (%). Moreover, for the setting “listed as AL 882 mg”, the “patients who experienced ISRs” value is recorded as 18.3%, the “patients with injection-site pain” value is recorded as 18.3%, the Injection-site discomfort is 0 n (%) and the Injection-site erythema was 0 n (%). Where the note is “listed as AL 882 mg”, the Injection-site induration is listed as 2 (2.4) n (%), the Injection-site pain is given as 15 (18.3) n (%), the Injection-site swelling is 1 (1.2) n (%) and the “Patients with at least one ISR” value was 15 (18.3) n (%).
